The text below walks through data of patent US10973832B2, “Muscarinic M1 receptor agonists” (Heptares Therapeutics Limited, priority 2011, dated 2021).

Common to all, as to format: cell-based
Test [1] deals with T1, human muscarinic M1 receptor (Homo sapiens, UniProt P11229).
T1 sequence (P11229 1-460): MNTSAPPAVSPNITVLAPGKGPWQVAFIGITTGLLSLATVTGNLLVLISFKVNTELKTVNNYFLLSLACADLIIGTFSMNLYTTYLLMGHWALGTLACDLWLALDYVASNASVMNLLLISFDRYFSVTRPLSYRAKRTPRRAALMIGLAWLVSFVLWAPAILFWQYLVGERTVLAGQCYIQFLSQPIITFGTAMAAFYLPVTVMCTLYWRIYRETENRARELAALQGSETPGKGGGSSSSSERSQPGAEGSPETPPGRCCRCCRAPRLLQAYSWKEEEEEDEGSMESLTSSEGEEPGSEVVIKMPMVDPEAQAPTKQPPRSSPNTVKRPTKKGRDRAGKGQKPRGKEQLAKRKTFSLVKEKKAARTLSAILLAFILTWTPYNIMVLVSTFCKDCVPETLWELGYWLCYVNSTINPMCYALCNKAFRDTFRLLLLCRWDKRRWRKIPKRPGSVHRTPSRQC
The test can be described thus: Phospho-ERK1/2 assay, muscarinic M1. Conditions: for EC50: CHO cells expressing human M1, phospho-ERK1/2 Alphascreen, read-out: pEC50 M1 (converted); for Emax: CHO, read-out: % Emax cf. ACh (M1). The protocol: (§1) Functional assays were performed using the Alphascreen Surefire phospho-ERK1/2 assay (Crouch & Osmond, Comb. Chem. High Throughput Screen, 2008). ERK1/2 phosphorylation is a downstream consequence of both Gq/11 and Gi/o protein coupled receptor activation, making it highly suitable for the assessment of M1, M3 (Gq/11 coupled) and M2, M4 receptors (Gi/o coupled), rather than using different assay formats for different receptor subtypes. CHO cells stably expressing the human muscarinic M1, M2, M3 or M4 receptor were plated (25K/well) onto 96-well tissue culture plates in MEM-alpha+10% dialysed FBS. Once adhered, cells were serum-starved overnight. Agonist stimulation was performed by the addition of 5 μL agonist to the cells for 5 min (37° C.). Media was removed and 50 μL of lysis buffer added. After 15 min, a 4 μL sample was transferred to 384-well plate and 7 μL of detection mixture added. Plates were incubated for 2 h with gentle agitation in the dark and then read on a PHERAstar plate reader.
(§2) pEC50 and Emax figures were calculated from the resulting data for each receptor subtype.
(Alpha assays give light when donor and acceptor beads are brought close together.)

For test [2], the target named is T2, human muscarinic M2 receptor (Homo sapiens, UniProt P08172).
T2 sequence (P08172 1-466): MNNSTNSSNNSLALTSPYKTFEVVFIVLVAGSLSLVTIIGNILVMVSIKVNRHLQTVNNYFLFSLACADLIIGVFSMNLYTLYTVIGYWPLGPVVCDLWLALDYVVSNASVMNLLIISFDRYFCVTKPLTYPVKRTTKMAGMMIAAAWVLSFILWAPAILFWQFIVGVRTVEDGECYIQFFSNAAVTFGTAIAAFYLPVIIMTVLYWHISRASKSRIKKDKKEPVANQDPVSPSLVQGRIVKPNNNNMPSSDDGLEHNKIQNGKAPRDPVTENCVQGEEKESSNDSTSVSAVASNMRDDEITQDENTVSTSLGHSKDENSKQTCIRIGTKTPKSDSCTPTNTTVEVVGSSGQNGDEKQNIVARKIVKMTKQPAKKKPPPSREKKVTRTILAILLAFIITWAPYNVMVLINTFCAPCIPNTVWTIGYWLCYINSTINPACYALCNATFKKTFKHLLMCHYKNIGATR
As to the kind of experiment: Phospho-ERK1/2 assay, muscarinic M2. Conditions: for EC50: CHO cells expressing human M2, phospho-ERK1/2 Alphascreen, read-out: pEC50 M2 (converted); for Emax: CHO, read-out: % Emax cf. ACh (M2). The procedure: as §1, §2

The target in test [3] is T3, human muscarinic M3 receptor (Homo sapiens, UniProt P20309).
T3 construct: expressed in transfected cells
As to the kind of experiment: Phospho-ERK1/2 assay, muscarinic M3. Conditions: for EC50: CHO cells expressing human M3, phospho-ERK1/2 Alphascreen, read-out: pEC50 M3 (converted); for Emax: CHO, read-out: % Emax cf. ACh (M3). The procedure: as §1, §2

The target of test [4] is T4, human muscarinic M4 receptor (Homo sapiens, UniProt P08173).
T4 construct: expressed in transfected cells
T4 sequence (P08173 1-479): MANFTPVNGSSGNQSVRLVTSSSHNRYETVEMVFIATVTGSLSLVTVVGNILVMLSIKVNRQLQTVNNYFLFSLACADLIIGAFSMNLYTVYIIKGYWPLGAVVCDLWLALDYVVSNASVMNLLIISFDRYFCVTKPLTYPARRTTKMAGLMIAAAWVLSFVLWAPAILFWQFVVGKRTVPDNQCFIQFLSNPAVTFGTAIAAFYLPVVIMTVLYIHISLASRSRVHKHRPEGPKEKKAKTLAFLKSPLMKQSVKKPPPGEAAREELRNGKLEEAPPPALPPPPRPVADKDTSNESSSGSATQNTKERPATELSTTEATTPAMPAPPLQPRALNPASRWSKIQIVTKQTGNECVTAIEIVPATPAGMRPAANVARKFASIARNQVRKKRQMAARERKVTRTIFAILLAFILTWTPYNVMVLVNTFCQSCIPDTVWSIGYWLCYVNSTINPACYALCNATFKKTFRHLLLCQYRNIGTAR
The test can be described thus: Phospho-ERK1/2 assay, muscarinic M4. Conditions: for EC50: CHO cells expressing human M4, phospho-ERK1/2 Alphascreen, read-out: pEC50 M4 (converted); for Emax: CHO, read-out: % Emax cf. ACh (M4). The protocol:
as §1, §2

T3 sequence (P20309 whole entry): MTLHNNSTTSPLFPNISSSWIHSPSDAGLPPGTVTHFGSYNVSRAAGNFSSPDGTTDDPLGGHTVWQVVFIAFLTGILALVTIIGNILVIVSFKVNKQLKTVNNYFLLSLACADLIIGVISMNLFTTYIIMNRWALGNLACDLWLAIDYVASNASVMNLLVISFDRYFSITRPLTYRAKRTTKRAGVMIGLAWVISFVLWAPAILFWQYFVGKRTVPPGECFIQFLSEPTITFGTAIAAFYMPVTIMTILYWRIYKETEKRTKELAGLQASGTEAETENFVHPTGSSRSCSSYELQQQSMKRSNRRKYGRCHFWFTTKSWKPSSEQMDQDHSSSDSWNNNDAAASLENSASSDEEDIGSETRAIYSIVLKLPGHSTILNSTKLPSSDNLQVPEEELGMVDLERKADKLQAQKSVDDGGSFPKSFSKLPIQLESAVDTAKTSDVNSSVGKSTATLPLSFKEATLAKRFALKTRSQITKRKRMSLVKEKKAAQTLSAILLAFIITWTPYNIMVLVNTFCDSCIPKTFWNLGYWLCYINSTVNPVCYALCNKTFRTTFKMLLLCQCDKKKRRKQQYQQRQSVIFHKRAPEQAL

As for `CCOC(=O)N1CCCC(N2CCC(F)(C(=O)NC(C)(C)CC)CC2)CC1` (centres unmarked) [Example 41, ethyl 4-(4-fluoro-4-((1,1-dimethylpropyl)carbamoyl)piperidin-1-yl)azepane-1-carboxylate], the EC50 in test [1] was 39.8 nM; in test [2] it was more than 20000 nM; in test [3], more than 20000 nM; in test [4], 257 nM. In addition, the Emax (usually the size of the effect at its maximum, as opposed to the concentration needed) is 97% in test [1], 41% in test [2], 12% in test [3] and 88% in test [4].

For `CCOC(=O)N1CCCC(N2CCC(F)(C(=O)NC3(C)CCCC3)CC2)CC1` (centres unmarked) [Example 48, ethyl 4-(4-fluoro-4-((1-methylcyclopentyl)carbamoyl)piperidin-1-yl)azepane-1-carboxylate], the EC50 is 61.7 nM in test [1], more than 20000 nM in test [2], more than 20000 nM in test [3] and 537 nM in test [4]. Further, the maximal effect (Emax) in test [1] worked out at 88%; in test [2] it was 12%; in test [3], 12%; in test [4], 73%.

For `CCOC(=O)N1CCCC(N2CCC(C(=O)N(CC)CC3CC3)CC2)CC1` (centres unmarked) [Example 26, ethyl 4-(4-((cyclopropylmethyl)(ethyl)carbamoyl)piperidin-1-yl)azepane-1-carboxylate], the EC50 is 447 nM in test [1], more than 20000 nM in test [2], more than 20000 nM in test [3] and 309 nM in test [4]. Also, the Emax in test [1] was determined as 95%; in test [2], 7%; in test [3], 0%; in test [4], 51%.

On to `CCOC(=O)N1CCCC(N2CCC(C#N)(C(=O)NC3(C)CCC3)CC2)CC1` (centres unmarked) [Example 82, ethyl 4-{4-cyano-4-[(1-methylcyclobutyl)carbamoyl]piperidin-1-yl}azepane-1-carboxylate], for which the EC50 in test [1] was 55 nM; in test [2], more than 20000 nM; in test [3], more than 20000 nM; in test [4], 1620 nM. The Emax in test [1] turned out to be 89%; in test [2], 16%; in test [3] it was 2%; in test [4] it was 81%.

`CCOC(=O)N1CCC(N2CCC(C(=O)NC(C)(C)C(C)C)CC2)CC1` [Example 3]: the EC50 in test [1] was 200 nM; in test [2], more than 20000 nM; in test [3], more than 20000 nM; in test [4], 562 nM. Further, the maximal effect (Emax) in test [1] stood at 116%; in test [2], 6%; in test [3] it was 4%; in test [4] it was 85%.

`CCOC(=O)N1CCC[C@H](N2CCC(C(=O)NCC(C)C)CC2)CC1` [Example 63]: the EC50 was 69.2 nM in test [1], more than 20000 nM in test [2], more than 20000 nM in test [3] and 646 nM in test [4]. Further, the maximum response (Emax) in test [1] is 107%; in test [2], 5%; in test [3] it was 5%; in test [4], 89%.

`CCOC(=O)N1CCCC(N2CCC(F)(C(=O)NC3CCC3)CC2)CC1` (centres unmarked) [Example 55, ethyl 4-(4-fluoro-4-((cyclobutyl)carbamoyl)piperidin-1-yl)azepane-1-carboxylate]: the EC50 in test [1] was 186 nM; in test [2], more than 20000 nM; in test [3], more than 20000 nM; in test [4], 1350 nM. The Emax in test [1] is 75%; in test [2] it was 17%; in test [3], 0%; in test [4], 69%.

As to `CCOC(=O)N1CCCC(N2CCC(C(=O)NC(C)(C)C)CC2)CC1` (centres unmarked) [Example 7, ethyl 4-(4-((1,1-dimethylethyl)carbamoyl)piperidin-1-yl)azepane-1-carboxylate], the EC50 in test [1] was 81.3 nM; in test [2], more than 20000 nM; in test [3] it was more than 20000 nM; in test [4] it was 191 nM. Moreover, the Emax in test [1] was 111%; in test [2], 2%; in test [3], 14%; in test [4], 80%.

Turning to `CCOC(=O)N1CCCC(N2CCC(F)(C(=O)NC(C)(C)C3CC3)CC2)CC1` (centres unmarked) [Example 54, ethyl 4-(4-fluoro-4-((2-cyclopropylpropan-2-yl)carbamoyl)piperidin-1-yl)azepane-1-carboxylate], the EC50 is 49 nM in test [1], more than 20000 nM in test [2], more than 20000 nM in test [3] and 229 nM in test [4]. Besides, the Emax worked out at 124% in test [1], 15% in test [2], 6% in test [3] and 114% in test [4].

For `CCOC(=O)N1CCCC(N2CCC(C(=O)NCC3(C)CCC3)CC2)CC1` (centres unmarked) [Example 69, ethyl 4-(4-{[(1-methylcyclobutyl)methyl]carbamoyl}piperidin-1-yl)azepane-1-carboxylate], the EC50 is 10.5 nM in test [1], more than 20000 nM in test [2], more than 20000 nM in test [3] and 240 nM in test [4]. Moreover, the Emax in test [1] was 120%; in test [2] it was 12%; in test [3], 14%; in test [4], 78%.

In the case of `CCOC(=O)N1CCC[C@@H](N2CCC(C(=O)NC3(C)CCC3)CC2)CC1` [Example 66, ethyl (4R)-4-{4-[(1-methylcyclobutyl)carbamoyl]piperidin-1-yl}azepane-1-carboxylate], the EC50 in test [1] was 275 nM; in test [2], more than 20000 nM; in test [3] it was more than 20000 nM; in test [4], 2450 nM. For the same compound, the maximum response (Emax) in test [1] came out at 94%; in test [2], 12%; in test [3], 0%; in test [4], 66%.

Turning to `CCOC(=O)N1CCCC(N2CCC(C(=O)NC3CCCC3)CC2)CC1` (centres unmarked) [Example 30, ethyl 4-(4-(cyclopentylcarbamoyl)piperidin-1-yl)azepane-1-carboxylate], the EC50 in test [1] was 57.5 nM; in test [2] it was more than 20000 nM; in test [3], more than 20000 nM; in test [4], 224 nM. In addition, the maximal effect (Emax) was 132% in test [1], 3% in test [2], 33% in test [3] and 104% in test [4].

With `CCOC(=O)N1CCCC(N2CCC(C(=O)NCC(C)C3CC3)CC2)CC1` (centres unmarked) [Example 39, ethyl 4-(4-((2-cyclopropylpropyl)carbamoyl)piperidin-1-yl)azepane-1-carboxylate], the EC50 in test [1] was 72.4 nM; in test [2], more than 20000 nM; in test [3], more than 20000 nM; in test [4] it was more than 20000 nM. Moreover, the Emax in test [1] was 96%; in test [2], 2%; in test [3], 8%; in test [4], 13%.
